{"source": "patent US5026733A", "about": "“Brain function-improving medicine” (Tsumura & Co., priority 1988, dated 1991)", "key": {"[1]": {"tested_on": "acetylcholine (ACh) content at cerebral cortex", "assay": "ACh content at cerebral cortex (HPLC-ECD), with or without scopolamine", "assay_type": "in vivo, male ICR strain mouse (9-weeks-old)", "description": "(§1) The compound of the formula was orally administered to a male ICR strain mouse (9-weeks-old), and after 2 hours, 2 mg/kg of scopolamine was applied to the abdominal cavity. After 30 minutes, the mouse was irradiated with 10 KW of microwaves for 0.5 seconds, and the brain was extracted and then divided into two parts, that is, the cerebral cortex (inclusive of hippocampus) and the subcerebral part. The wet weights were measured and the acetylcholine (hereinafter referred to as \"ACh\") contents were measured according to the following method.\n(§2) Each part of the brain was homogenized by 0.1N perchloric acid (HClO4)and subjected to centrifugal separation under 30000 g for 15 minutes. The supernatant was passed through a 0.45 μm microfilter and poured into HPLC-ECD.\n(§3) The measurement conditions were as follows.\n(§4) Moving phase: phosphate buffer (pH 8.0)\n(§5) Enzyme immobilized column: Eicom AC-Enzmpak\n(§6) Anakyzing column: Eicom AC-ODS (4.6 mm in diameter and 250 mm in length)\n(§7) The compound of the formula was orally administered while scopolamine was not applied, and after 2 hours and 30 minutes, the ACh content was determined in the same manner as described above."}, "[2]": {"assay": "Acute toxicity by oral administration, mice"}, "[3]": {"tested_on": "locomotor activity by scopolamine", "assay": "Scopolamine-induced locomotor activity measured by animex", "assay_type": "in vivo, male ICR strain mouse (6-weeks-old)", "details": "3 mg/kg p.o.", "description": "In the same manner as described in Test Example 2, 3 mg/kg of the compound of the formula was orally administered to a male ICR strain mouse (6-weeks-old), and after 2 hours, 2 mg/kg of scopolamine was intraperitoneally administered. For 120 minutes from the point of the application, the locomotor activity was measured by an animex. To the control group, 1% Tween 80 was orally administered and 2 mg/kg of scopolamine was intraperitoneally administered, and the locomotor activity was similarly measured."}, "[4]": {"assay": "Step-through passive avoidance learning test", "assay_type": "in vivo, male ICR strain mouse (5-weeks-old)", "details": "3 mg/kg p.o.", "description": "(§8) A male ICR strain mouse (5-weeks-old) was admitted in a bright chamber of a step-through passive avoidance learning device. After 60 seconds, a guillotine door was opened. Just after the mouse entered a dark room, the guillotine door was shut, and a foot shock of 0.15 mA was given to the mouse for 5 seconds. This operation was conducted until the mouse stayed in the bright room for more than 1 minute. Then, the mouse was taken out and 3 mg/kg of the compound of the formula was orally administered, and the mouse was returned to a home cage.\n(§9) After 24 hours, the mouse was admitted into the bright chamber, and after 60 seconds, the guillotine door was opened and the time required for the mouse to enter in the dark room was measured as 300 seconds at longest. Furthermore, 3 mg/kg of the compound of the formula was orally administered, and the spontaneous movement quantity for 4 hours after the oral administration was measured by an animex and the total quantity was calculated. Note, 1% Tween was orally administered to the control group."}, "[5]": {"assay": "Spontaneous movement quantity measured by animex", "assay_type": "in vivo, male ICR strain mouse (5-weeks-old)", "details": "3 mg/kg p.o.; 4 hours after administration; control 5123 ± 259", "description": "as §8, §9"}, "[6]": {"tested_on": "locomotor activity by methamphethamine", "assay": "Methamphethamine-induced locomotor activity measured by animex", "assay_type": "in vivo, male ICR strain mouse (5-weeks-old)", "details": "3 mg/kg p.o.", "description": "The compound of the formula (3 mg/kg) was orally administered to a male ICR strain mouse (5-weeks-old), and after 2 hours, 2 mg/kg of methamphethamine was intraperitoneally administered. The locomotor activity for every 15 minutes was measured by an animex, and the measurement was conducted for 120 minutes. To the control group, 1% Tween 80 was administered instead of the compound of the formula, and after 2 hours, 2 mg/kg of methamphethamine was intraperitoneally administered. The locomotor activity was similarly measured."}, "[7]": {"assay": "Acute toxicity by oral administration, rats", "details": "rat, in vivo"}, "[8]": {"tested_on": "acetylcholine (ACh) content at subcerebral part", "assay": "ACh content at subcerebral part (HPLC-ECD), with or without scopolamine", "assay_type": "in vivo, male ICR strain mouse (9-weeks-old)", "description": "as §1, §2, §3, §4, §5, §6, §7"}, "[9]": {"details": "also under the application of scopolamine"}}, "data": [{"molecule": "COc1cc2c(c(OC)c1OC)-c1c(cc(OC)c(OC)c1OC)C[C@](C)(O)[C@@H](C)C2", "note": "[compound of the formula]", "values": [{"measurement": "ACh content at cerebral cortex", "setting": "[1]; 3 mg/kg p.o., 2 mg/kg scopolamine after 2 h, scopolamine alone 11.4", "result": "13.9 nM/g of wet weight"}, {"measurement": "ACh content at cerebral cortex", "setting": "[1]; 3 mg/kg p.o., no scopolamine, 2 h 30 min, untreated 15.7", "result": "20.9 nM/g of wet weight"}, {"measurement": "ACh content at cerebral cortex", "setting": "[1]; 30 mg/kg p.o., 2 mg/kg scopolamine after 2 h, scopolamine alone 11.4", "result": "13.7 nM/g of wet weight"}, {"measurement": "ACh content at cerebral cortex", "setting": "[1]; 30 mg/kg p.o., no scopolamine, 2 h 30 min, untreated 15.7", "result": "21.7 nM/g of wet weight"}, {"measurement": "ACh content at cerebral cortex (in words)", "setting": "[1]; [9]", "result": "increases the ACh contents at the cerebral cortex"}, {"measurement": "LD50", "setting": "[2]; mouse, in vivo, po", "result": 900, "unit": "mg/kg"}, {"measurement": "toxicity (in words)", "setting": "[2]; oral acute toxicity, mice and rats", "result": "low toxicity"}, {"measurement": "locomotor activity by scopolamine (in words)", "setting": "[3]", "result": "controls the locomotor activity by scopolamine"}, {"measurement": "locomotor activity", "setting": "[3]; 2 h before 2 mg/kg i.p. scopolamine, for 120 minutes, control 6353±296", "result": "3991±389"}, {"measurement": "avoidance learning function (in words)", "setting": "[4]", "result": "a reduction of the avoidance learning function is not observed"}, {"measurement": "time required for mouse to enter dark room", "setting": "[4]; 24 hours after foot shock training, measured as 300 seconds at longest, control 229 ± 30.4", "result": "> 300", "unit": "s"}, {"measurement": "sum of spontaneous movement quantity for 4 hours", "setting": "[5]", "result": "6693 ± 474"}, {"measurement": "locomotor activity by methamphethamine (in words)", "setting": "[6]", "result": "controls the locomotor activity by methamphethamine"}, {"measurement": "locomotor activity after 15 minutes", "setting": "[6]; 2 h before 2 mg/kg i.p. methamphethamine, after 15 minutes, control 1250 ± 68", "result": "1034 ± 111"}, {"measurement": "locomotor activity after 30 minutes", "setting": "[6]; 2 h before 2 mg/kg i.p. methamphethamine, after 30 minutes, control 1551 ± 33", "result": "1295 ± 34"}, {"measurement": "locomotor activity after 45 minutes", "setting": "[6]; 2 h before 2 mg/kg i.p. methamphethamine, after 45 minutes, control 1511 ± 32", "result": "1245 ± 50"}, {"measurement": "locomotor activity after 60 minutes", "setting": "[6]; 2 h before 2 mg/kg i.p. methamphethamine, after 60 minutes, control 1429 ± 38", "result": "1156 ± 49"}, {"measurement": "locomotor activity after 75 minutes", "setting": "[6]; 2 h before 2 mg/kg i.p. methamphethamine, after 75 minutes, control 1344 ± 34", "result": "1087 ± 40"}, {"measurement": "locomotor activity after 90 minutes", "setting": "[6]; 2 h before 2 mg/kg i.p. methamphethamine, after 90 minutes, control 1228 ± 44", "result": "989 ± 53"}, {"measurement": "locomotor activity after 120 minutes", "setting": "[6]; 2 h before 2 mg/kg i.p. methamphethamine, after 120 minutes, control 1126 ± 28", "result": "898 ± 60"}, {"measurement": "LD50", "setting": "[7]", "result": 900, "unit": "mg/kg"}, {"measurement": "ACh content at subcerebral part", "setting": "[8]; 3 mg/kg p.o., 2 mg/kg scopolamine after 2 h, scopolamine alone 23.3", "result": "26.9 nM/g of wet weight"}, {"measurement": "ACh content at subcerebral part", "setting": "[8]; 3 mg/kg p.o., no scopolamine, 2 h 30 min, untreated 27.8", "result": "35.0 nM/g of wet weight"}, {"measurement": "ACh content at subcerebral part", "setting": "[8]; 30 mg/kg p.o., 2 mg/kg scopolamine after 2 h, scopolamine alone 23.3", "result": "26.1 nM/g of wet weight"}, {"measurement": "ACh content at subcerebral part", "setting": "[8]; 30 mg/kg p.o., no scopolamine, 2 h 30 min, untreated 27.8", "result": "38.9 nM/g of wet weight"}, {"measurement": "ACh content at subcerebral part (in words)", "setting": "[8]; [9]", "result": "increases the ACh contents at the cerebral cortex and the subcerebral part"}]}]}
